What was measured:
Type in all cases: biochemical
KRAS G12C = target: T1, KRAS G12C (Homo sapiens, UniProt P01116, G12C); experiment: HTRF nucleotide exchange assay (NEA), KRAS G12C; details: recombinant human KRAS aa1-188 G12C, 4 nM; 60 min compound incubation, EDA-GTP-DY647P1
T1 construct: 4 nM KRAS; aa1-188 containing the G12V, G12C, G12A or G12S amino acid substitution
Method: (§1) HTRF Nucleotide Exchange Assay Method
(§2) The capacity of compounds to bind KRAS G12D, other KRAS mutants and wildtype RAS isoforms was quantified using a HTRF nucleotide exchange assay. Recombinant human RAS protein (2 nM; aa1-188 KRAS WT, HRAS WT, NRAS WT, or KRAS containing the containing the G12D, G13D or Q61H amino acid substitutions, or 4 nM KRAS; aa1-188 containing the G12V, G12C, G12A or G12S amino acid substitution, an N-terminal 6×His-tag and leader sequence), and 2 nM Europium-labeled anti-6×His antibody were mixed in assay buffer (10 mM HEPES pH7.3, 150 mM NaCl, 5 mM MgCl2, 0.05% BSA, 0.0025% NP-40 and 100 mM KF) with various concentrations of compound in a 384-well plate and a volume of 5 uL. After a 60-minute incubation at room temperature, Sul of 200 nM EDA-GTP-DY647P1 (diluted in assay buffer) was added to the plate. Following 30-minute incubation at room temperature, time-resolved fluorescence was measured on a PerkinElmer Envision plate reader. DMSO (0.3%) and unlabeled GDP (1 μM) or equivalent tool compound were used to generate the Max and Min assay signals, respectively. Data was analysed using a four-parameter logistic model to calculate IC50 values, with at least two independent replicates were performed for each compound.

KRAS G13D = target: T2, KRAS G13D (Homo sapiens, UniProt P01116, G13D); experiment: HTRF nucleotide exchange assay (NEA), KRAS G13D; details: recombinant human KRAS aa1-188 G13D, 2 nM, 60 min compound incubation, EDA-GTP-DY647P1; for inhibition at 10 µM: 1 h
T2 construct: aa1-188 KRAS WT, HRAS WT, NRAS WT, or KRAS containing the containing the G12D, G13D or Q61H amino acid substitutions
Method: as §1
The capacity of compounds to bind KRAS G12D, other KRAS mutants and wildtype RAS isoforms was quantified using a HTRF nucleotide exchange assay. […] After a 60-minute incubation at room temperature, Sul of 200 nM EDA-GTP-DY647P1 (diluted in assay buffer) was added to the plate. Following 30-minute incubation at room temperature, time-resolved fluorescence was measured on a PerkinElmer Envision plate reader. DMSO (0.3%) and unlabeled GDP (1 μM) or equivalent tool compound were used to generate the Max and Min assay signals, respectively. Data was analysed using a four-parameter logistic model to calculate IC50 values, with at least two independent replicates were performed for each compound.

KRAS G12D = target: T3, KRAS G12D (Homo sapiens, UniProt P01116, G12D); experiment: HTRF nucleotide exchange assay (NEA), KRAS G12D; details: recombinant human KRAS aa1-188 G12D, 2 nM, 60 min compound incubation, EDA-GTP-DY647P1; for inhibition at 10 µM: 1 h
T3 construct: aa1-188 KRAS WT, HRAS WT, NRAS WT, or KRAS containing the containing the G12D, G13D or Q61H amino acid substitutions
Method: as §1, §2

KRAS WT = target: T4, KRAS WT (Homo sapiens, UniProt P01116); experiment: HTRF nucleotide exchange assay (NEA), KRAS WT; details: recombinant human KRAS WT aa1-188, 2 nM, 60 min compound incubation, EDA-GTP-DY647P1; for inhibition at 10 µM: 1 h
T4 construct: aa1-188 KRAS WT, HRAS WT, NRAS WT
Method: as §1, §2

KRAS G12S = target: T5, KRAS G12S (Homo sapiens, UniProt P01116, G12S); experiment: HTRF nucleotide exchange assay (NEA), KRAS G12S; details: 1 h; recombinant human KRAS aa1-188 G12S, 4 nM; 60 min compound incubation, EDA-GTP-DY647P1
T5 construct: 4 nM KRAS; aa1-188 containing the G12V, G12C, G12A or G12S amino acid substitution
Method: as §1, §2

T2 sequence (P01116 1-188 isoform P01116-2 G13D): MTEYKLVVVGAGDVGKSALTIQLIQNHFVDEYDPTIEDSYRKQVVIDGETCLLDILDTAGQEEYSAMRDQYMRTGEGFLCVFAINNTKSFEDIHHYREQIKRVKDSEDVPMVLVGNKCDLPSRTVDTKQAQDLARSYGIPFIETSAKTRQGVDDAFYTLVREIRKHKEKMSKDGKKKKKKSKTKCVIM
T3 sequence (P01116 1-188 isoform P01116-2 G12D): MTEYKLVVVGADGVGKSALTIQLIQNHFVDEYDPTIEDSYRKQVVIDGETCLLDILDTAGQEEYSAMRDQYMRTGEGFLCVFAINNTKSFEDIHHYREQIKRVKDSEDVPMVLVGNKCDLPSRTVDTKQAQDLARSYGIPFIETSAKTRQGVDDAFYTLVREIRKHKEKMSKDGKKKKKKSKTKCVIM
T4 sequence (P01116 1-188 isoform P01116-2): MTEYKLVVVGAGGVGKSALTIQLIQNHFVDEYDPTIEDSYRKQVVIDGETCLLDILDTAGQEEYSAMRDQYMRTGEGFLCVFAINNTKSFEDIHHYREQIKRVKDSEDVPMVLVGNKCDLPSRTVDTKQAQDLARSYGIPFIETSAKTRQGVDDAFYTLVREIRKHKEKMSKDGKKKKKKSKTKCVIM
T5 sequence (P01116 1-188 isoform P01116-2 G12S): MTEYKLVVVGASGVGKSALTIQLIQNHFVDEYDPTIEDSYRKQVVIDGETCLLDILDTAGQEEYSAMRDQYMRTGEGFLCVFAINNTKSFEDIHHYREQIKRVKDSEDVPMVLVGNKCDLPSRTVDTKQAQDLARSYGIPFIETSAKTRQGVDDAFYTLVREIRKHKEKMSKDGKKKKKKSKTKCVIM
T1 sequence (P01116 1-188 isoform P01116-2 G12C): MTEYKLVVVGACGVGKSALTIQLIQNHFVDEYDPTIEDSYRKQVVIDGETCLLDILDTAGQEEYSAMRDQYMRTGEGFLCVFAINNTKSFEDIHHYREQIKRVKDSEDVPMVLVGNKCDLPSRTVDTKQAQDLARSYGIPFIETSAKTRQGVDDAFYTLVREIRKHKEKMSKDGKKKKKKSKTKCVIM

| SMILES | inhibition at 10 µM (KRAS G12D) | inhibition at 10 µM (KRAS WT) | other results |
| --- | --- | --- | --- |
| Cc1c(-c2cc(O)cc3ccccc23)ccc2c(N3CC4CCC(C3)N4)nc(OCC34CCCN3CCC4)nc12 [Example 1, 4-[4-(3,8-diazabicyclo[3.2.1]octan-3-yl)-2-(1,2,3,5,6,7-hexahydropyrrolizin-8-ylmethoxy)-8-methyl-quinazolin-7-yl]naphthalen-2-ol] | – | – | IC50 (KRAS G12C): 100 to 10000 nM; inhibition at 10 µM (KRAS G13D): 10 to 49%; IC50 (KRAS G12D): < 10 nM; IC50 (KRAS WT): 100 to 10000 nM |
| Cc1c(-c2cc(O)cc3ccccc23)ccc2c(N3CCSCC3)nc(OCC34CCCN3CCC4)nc12 [Example 3, 4-[2-(1,2,3,5,6,7-hexahydropyrrolizin-8-ylmethoxy)-8-methyl-4-thiomorpholino-quinazolin-7-yl]naphthalen-2-ol] | – | – | IC50 (KRAS G12C): 100 to 10000 nM; IC50 (KRAS G13D): 100 to 10000 nM; IC50 (KRAS G12D): 100 to 10000 nM; IC50 (KRAS WT): 100 to 10000 nM |
| Cc1c(-c2cc(O)cc3ccccc23)ccc2c(N3CCOCCC3=O)nc(OCC34CCCN3CCC4)nc12 [Example 4, 4-[2-(1,2,3,5,6,7-hexahydropyrrolizin-8-ylmethoxy)-7-(3-hydroxy-1-naphthyl)-8-methyl-quinazolin-4-yl]-1,4-oxazepan-5-one] | 10 to 49% | 10 to 49% | inhibition at 10 µM (KRAS G13D): 10 to 49% |
| Cc1c(-c2cc(O)cc3ccccc23)ccc2c(N3CCCOCC3=O)nc(OCC34CCCN3CCC4)nc12 [Example 5, 4-[2-(1,2,3,5,6,7-hexahydropyrrolizin-8-ylmethoxy)-7-(3-hydroxy-1-naphthyl)-8-methyl-quinazolin-4-yl]-1,4-oxazepan-3-one] | 10 to 49% | 10 to 49% | inhibition at 10 µM (KRAS G13D): 10 to 49% |
| Cc1c(-c2cc(O)cc3ccccc23)ccc2c(N3CCn4nccc4C3)nc(OCC34CCCN3CCC4)nc12 [Example 7] | 10 to 49% | 10 to 49% | inhibition at 10 µM (KRAS G12S): 10 to 49% |
| Cc1c(-c2cc(O)cc3ccccc23)ccc2c(N3CCn4cncc4C3)nc(OCC34CCCN3CCC4)nc12 [Example 8, 4-[4-(6,8-dihydro-5H-imidazo[1,5-a]pyrazin-7-yl)-2-(1,2,3,5,6,7-hexahydropyrrolizin-8-ylmethoxy)-8-methyl-quinazolin-7-yl]naphthalen-2-ol] | 10 to 49% | 10 to 49% | inhibition at 10 µM (KRAS G12S): 10 to 49% |
| Cc1c(-c2cc(O)cc3ccccc23)ccc2c(N3CCn4ccnc4C3)nc(OCC34CCCN3CCC4)nc12 [Example 9, 4-[4-(6,8-dihydro-5H-imidazo[1,2-a]pyrazin-7-yl)-2-(1,2,3,5,6,7-hexahydropyrrolizin-8-ylmethoxy)-8-methyl-quinazolin-7-yl]naphthalen-2-ol] | 10 to 49% | 10 to 49% | inhibition at 10 µM (KRAS G12S): 10 to 49% |
| Cc1c(-c2cc(O)cc3ccccc23)ccc2c(N3CCc4[nH]ncc4C3)nc(OCC34CCCN3CCC4)nc12 [Example 10, 4-[2-(1,2,3,5,6,7-hexahydropyrrolizin-8-ylmethoxy)-8-methyl-4-(1,4,6,7-tetrahydropyrazolo[4,3-c]pyridin-5-yl)quinazolin-7-yl]naphthalen-2-ol] | 10 to 49% | 10 to 49% | – |
| Cc1c(-c2cc(O)cc3ccccc23)ccc2c(N3CCc4cn[nH]c4C3)nc(OCC34CCCN3CCC4)nc12 [Example 11, 4-[2-(1,2,3,5,6,7-hexahydropyrrolizin-8-ylmethoxy)-8-methyl-4-(1,4,5,7-tetrahydropyrazolo[3,4-c]pyridin-6-yl)quinazolin-7-yl]naphthalen-2-ol] | 10 to 49% | 10 to 49% | – |
| Cc1c(-c2ncnc3ccc(C#N)cc23)ccc2c(N3CCCOCC3)nc(OCC34CCCN3CCC4)nc12 [Example 12, 4-[2-(1,2,3,5,6,7-hexahydropyrrolizin-8-ylmethoxy)-8-methyl-4-(1,4-oxazepan-4-yl)quinazolin-7-yl]quinazoline-6-carbonitrile] | 10 to 49% | 10 to 49% | – |
| Cc1c(-c2cccc3sc(N)nc23)ccc2c(N3CCCOCC3)nc(OCC34CCCN3CCC4)nc12 [Example 13, 4-[2-(1,2,3,5,6,7-hexahydropyrrolizin-8-ylmethoxy)-8-methyl-4-(1,4-oxazepan-4yl)quinazolin-7-yl]-1,3-benzothiazol-2-amine] | – | – | IC50 (KRAS G12D): 100 to 10000 nM; IC50 (KRAS WT): 100 to 10000 nM |
| Cc1nc(-c2ccc3c(N4CCCOCC4)nc(OCC45CCCN4CCC5)nc3c2C)c2ccccc2n1 [Example 14, 4-[2-(1,2,3,5,6,7-hexahydropyrrolizin-8-ylmethoxy)-8-methyl-7-(2-methylquinazolin-4-yl)quinazolin-4-yl]-1,4-oxazepane] | 10 to 49% | 10 to 49% | – |
| COc1ccc(C(F)(F)F)cc1-c1ccc2c(N3CCCOCC3)nc(OCC34CCCN3CCC4)nc2c1C [Example 15, 4-[2-(1,2,3,5,6,7-hexahydropyrrolizin-8-ylmethoxy)-7-[2-methoxy-5-(trifluoromethyl)phenyl]-8-methyl-quinazolin-4-yl]-1,4-oxazepane] | 10 to 49% | 10 to 49% | – |
| COc1ccc(Cl)cc1-c1ccc2c(N3CCCOCC3)nc(OCC34CCCN3CCC4)nc2c1C [Example 16, 4-[7-(5-chloro-2-methoxy-phenyl)-2-(1,2,3,5,6,7-hexahydropyrrolizin-8-ylmethoxy)-8-methyl-quinazolin-4-yl]-1,4-oxazepane] | 10 to 49% | – | IC50 (KRAS WT): 100 to 10000 nM |
| Cc1c(-c2c[nH]nc2C(F)(F)F)ccc2c(N3CCCOCC3)nc(OCC34CCCN3CCC4)nc12 [Example 17, 4-[2-(1,2,3,5,6,7-hexahydropyrrolizin-8-ylmethoxy)-8-methyl-7-[3-(trifluoromethyl)-1H-pyrazol-4-yl]quinazolin-4-yl]-1,4-oxazepane] | 10 to 49% | 10 to 49% | – |
| Cc1ccc2[nH]ncc2c1-c1ccc2c(N3CCCOCC3)nc(OCC34CCCN3CCC4)nc2c1C [Example 18, 4-[2-(1,2,3,5,6,7-hexahydropyrrolizin-8-ylmethoxy)-8-methyl-7-(5-methyl-1H-indazol-4-yl)quinazolin-4-yl]-1,4-oxazepane] | 10 to 49% | 10 to 49% | – |
| Cc1c(-c2cccc3[nH]ncc23)ccc2c(N3CCCOCC3)nc(OCC34CCCN3CCC4)nc12 [Example 19, 4-[2-(1,2,3,5,6,7-hexahydropyrrolizin-8-ylmethoxy)-7-(1H-indazol-4-yl)-8-methyl-quinazolin-4-yl]-1,4-oxazepane] | 10 to 49% | 10 to 49% | – |
| Cc1c(-c2n[nH]c3ccccc23)ccc2c(N3CCCOCC3)nc(OCC34CCCN3CCC4)nc12 [Example 20, 4-[2-(1,2,3,5,6,7-hexahydropyrrolizin-8-ylmethoxy)-7-(1H-indazol-3-yl)-8-methyl-quinazolin-4-yl]-1,4-oxazepane] | 10 to 49% | 10 to 49% | – |
| Cc1c(-c2cccc3cnn(C)c23)ccc2c(N3CCCOCC3)nc(OCC34CCCN3CCC4)nc12 [Example 21, 4-[2-(1,2,3,5,6,7-hexahydropyrrolizin-8-ylmethoxy)-8-methyl-7-(1-methylindazol-7-yl)quinazolin-4-yl]-1,4-oxazepane] | 10 to 49% | 10 to 49% | – |
| Cc1c(-c2nc(N)cc3ccccc23)ccc2c(N3CCCOCC3)nc(OCC34CCCN3CCC4)nc12 [Example 23, 1-[2-(1,2,3,5,6,7-hexahydropyrrolizin-8-ylmethoxy)-8-methyl-4-(1,4-oxazepan-4-yl)quinazolin-7-yl]isoquinolin-3-amine] | 10 to 49% | 10 to 49% | – |

From patent US20240287078A1, “QUINAZOLINE DERIVATIVES USEFUL AS RAS INHIBITORS” (Redx Pharma PLC, priority 2021, published 2024)
